Test results from article PMC13360702, “An Agonist/Antagonist Photo‐Switchable Vitamin D Mimetic Enables Bidirectional Optical Control of VDR” (Angewandte Chemie (International Ed. in English), 2026).

Target: T1, VDR (Homo sapiens, UniProt P11473)
T1 construct: -CMV-VDR-LBD coding for the hinge region and; expressed in transfected cells; host or cells: HEK293T
T1 sequence (P11473 127-423 limits assumed): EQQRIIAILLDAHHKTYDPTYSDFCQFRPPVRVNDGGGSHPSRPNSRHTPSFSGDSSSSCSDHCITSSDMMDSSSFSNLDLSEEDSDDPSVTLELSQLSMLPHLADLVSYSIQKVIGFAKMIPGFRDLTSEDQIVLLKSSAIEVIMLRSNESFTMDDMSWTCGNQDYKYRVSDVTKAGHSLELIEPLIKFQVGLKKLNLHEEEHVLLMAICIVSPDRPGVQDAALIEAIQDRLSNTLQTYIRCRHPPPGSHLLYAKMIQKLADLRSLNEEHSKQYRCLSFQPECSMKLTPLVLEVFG
Test: fluorescent (mCherry) reporter gene assay, in‐cell VDR activation over time
Type: cell-based
Conditions: 1 µM
Procedure: To evaluate the potential of 10 for in‐cell control of VDR activity, we determined its light‐dependent effect over time (Figure 3a) using VDR‐induced expression of the fluorescent protein mCherry as reporter for non‐invasive monitoring. Under illumination with a Cell‐Disco [24]
FIGURE 3 Optical control of VDR activity with photo‐vitD (10). (a) 10 (1 µM) enabled light‐dependent in‐cell activation of VDR in a fluorescent (mCherry) reporter gene assay. Gray curve: dark; blue curve: Cell‐Disco (370 nm; 100 ms/10 s); yellow curve: dark for 10 h, then Cell‐Disco (370 nm); magenta curve: Cell‐Disco (370 nm) for 10 h, then Cell‐Disco (450 nm). Lines are the mean, shadows are S.E.M.; n = 6. (b–d) Phenotypic model of bone formation using human […] (ASC52telo hTERT cells) and cyclic treatment with dexamethasone, 2‐phospho‐L‐ascorbic acid, and glycerol 2‐phosphate over 15 days to induce osteogenesis. Alkaline phosphatase (ALP) activity (b) and von Kossa staining of hydroxyapatite (c; representative photomicrographs in d) were used as markers of osteogenesis. Experiments were performed in the dark (gray bars) and using a Cell‐Disco (370 nm, 100 ms/10 s; blue bars). Data are the mean±SD, n = 6. * p<0.05, ** p<0.01, *** p<0.001 (vs. respective dark or illuminated DMSO (diff.) ctrl or as indicated; ANOVA with Dunnett's multiple comparisons test).
Gal4-hybrid reporter gene assays. […] After 14−16 h incubation, luciferase activity was measured using the Dual -Glo Luciferase Assay System (Promega) according to the manufacturer’s protocol on a Tecan Spark luminometer (Tecan Deutschland GmbH, Crailsheim, Germany). […] EC 50 and IC50 values were calculated by fitting dose−response data with the equation “[agonist] vs response − variable slope (four parameters)” or “[inhibitor] vs response − variable slope (four parameters)” in GraphPad Prism (version 7, GraphPad software, La Jolla, CA, USA). […]
Fluorescent Reporter Gene Assay. The fluorescence reporter gene assay was performed in HEK293T […]

CCCc1cc(C(O)(CC)CC)ccc1-c1ccc(/N=N/c2ccc3cc(C(=O)O)ccc3c2)cc1C [compound 10]
VDR‐induced mCherry fluorescence over time (Cell‐Disco 370 nm for 10 h, then switched back to (E)‐state with 450 nm light): the increase in mCherry fluorescence ceased
VDR‐induced mCherry fluorescence over time (Cell‐Disco 370 nm, 100 ms/10 s ((Z)‐state)): mCherry fluorescence constantly increased
VDR‐induced mCherry fluorescence over time (without illumination (dark)): no increase in fluorescence
